{
  "source": "patent US9637502B2",
  "about": "“Crystal form of Cefathiamidine compound and preparation method therefor” (TIANJIN UNIVERSITY, priority 2014, dated 2017)",
  "key": {"[1]": {"assay": "Differential scanning calorimetry, decomposing exothermic peak", "format": "physicochemical", "settings": "25˜200° C., 10° C./min, nitrogen 80 mL/min", "procedure": "The novel crystalline form of Cefathiamidine compound provided in the present invention is determined by differential scanning calorimeter, and the differential scanning calorimetry thermogram comprises a melting endothermic peak at 169.6±1° C. and a decomposing exothermic peak at 172.2±1° C. as shown in FIG. 6. Test conditions are as follows: temperature range, 25˜200° C., temperature rising rate, 10° C./min, nitrogen protection: 80 mL/min."}, "[2]": {"assay": "Toxicity test, LD50 in mice", "settings": "mouse, in vivo", "procedure": "(§1) The novel crystalline form of Cefathiamidine compound of the present invention was tested by toxicity tests and in vitro antibacterial activity tests (taking the crystalline form of Cefathiamidine compound obtained in Example 1 for example)."}, "[3]": {"assay": "Reproductive toxicity test", "format": "in vivo", "settings": "compared with prior art", "procedure": "as §1"}, "[4]": {"tested_on": "another three bacterias", "assay": "In vitro antibacterial activity test", "format": "cell-based", "settings": "against another three bacterias", "procedure": "as §1\n(§2) Thus, the antibacterial activity was better than that of any prior art, and was more suitable for clinical application."}, "[5]": {"tested_on": "enterococcus", "assay": "In vitro antibacterial activity test", "format": "cell-based", "settings": "against enterococcus", "procedure": "as §1, §2"}, "[6]": {"tested_on": "haemophilus influenza", "assay": "In vitro antibacterial activity test", "format": "cell-based", "settings": "against haemophilus influenza", "procedure": "as §1, §2"}, "[7]": {"tested_on": "streptococcus pneumonia", "assay": "In vitro antibacterial activity test", "format": "cell-based", "settings": "Streptococcus pneumoniae; against streptococcus pneumonia", "procedure": "as §1, §2"}, "[8]": {"tested_on": "streptococcus pyogenes", "assay": "In vitro antibacterial activity test", "format": "cell-based", "settings": "against streptococcus pyogenes", "procedure": "as §1, §2"}, "[9]": {"assay": "Thermal stability tests (storage)", "format": "physicochemical", "settings": "within 4 months at 30° C.", "procedure": "5 g of solid Cefathiamidine compound with a purity of 98% was added to 100 mL of ethanol at a temperature of 45° C., until being totally dissolved to form a solution, and then 300 mL of isopropanol as a solventing-out agent was dropwise added to the solution within 3 hours; followed by cooling the solution down to 0° C. at a rate of 0.2° C./min; continuing to stir for 3 hours."}, "[10]": {"settings": "prior-art crystalline forms; cited from earlier work"}},
  "data": [
    {"smiles": "CC(=O)OCC1=C(C(=O)O)N2C(=O)[C@@H](NC(=O)CSC(=NC(C)C)NC(C)C)[C@H]2SC1", "values": [
      {"measurement": "thermal decomposing temperature (decomposing exothermic peak, DSC)", "setting": "[1]", "result": "172.2±1", "unit": "°C"}
    ]},
    {"smiles": "CC(=O)OCC1=C(C(=O)O)N2C(=O)[C@@H](NC(=O)CSC(=NC(C)C)NC(C)C)[C@H]2SC1.N", "note": "[Example 1, (6R,7R)-3[(acetyloxy)methyl]-7-[α-(N,N′-diisopropyl-carbamimidoylsulfanyl)-acetylamino]-8-oxo-5-thia-1-aza-bicyclo[4,2,0]oct-2-ene-2-carboxylic acid ammonium salt]", "values": [
      {"measurement": "LD50", "setting": "[2]; ip, intraperitoneal injection", "result": "1300 ± 200", "unit": "mg/kg"},
      {"measurement": "LD50", "setting": "[2]; mice, intravenous injection", "result": "1100 ± 20", "unit": "mg/kg"},
      {"measurement": "reproductive toxicity", "setting": "[3]", "result": "lower reproductive toxicity than that of any prior art"},
      {"measurement": "MIC90", "setting": "[4]", "result": "< 7.8", "unit": "µg/mL"},
      {"measurement": "MIC90", "setting": "[5]", "result": 1.9, "unit": "µg/mL"},
      {"measurement": "MIC90", "setting": "[6]", "result": 1.8, "unit": "µg/mL"},
      {"measurement": "MIC90", "setting": "[7]", "result": 0.24, "unit": "µg/mL"},
      {"measurement": "MIC90", "setting": "[8]", "result": 0.48, "unit": "µg/mL"},
      {"measurement": "thermal stability (change on storage)", "setting": "[9]", "result": "did not make any change"},
      {"measurement": "thermal decomposing temperature (decomposing exothermic peak, DSC)", "setting": "[1]", "result": 172.2, "unit": "°C"}
    ]},
    {"smiles": "CC(=O)OCC1=C(C(=O)O)N2C(=O)[C@@H](NC(=O)CSC(=NC(C)C)NC(C)C)[C@H]2SC1", "note": "[Example 6]", "values": [
      {"measurement": "thermal stability (change on storage)", "setting": "[9]", "result": "did not make any change"},
      {"measurement": "thermal decomposing temperature (decomposing exothermic peak, DSC)", "setting": "[1]", "result": 171.8, "unit": "°C"}
    ]},
    {"smiles": "CC(=O)OCC1=C(C(=O)O)N2C(=O)[C@@H](NC(=O)CSC(=NC(C)C)NC(C)C)[C@H]2SC1", "note": "[crystalline form of Cefathiamidine obtained from acetonitril]", "values": [
      {"measurement": "thermal cracking / decomposition temperature", "setting": "[10]", "result": 145.4, "unit": "°C"}
    ]},
    {"smiles": "CC(=O)OCC1=C(C(=O)O)N2C(=O)[C@@H](NC(=O)CSC(=NC(C)C)NC(C)C)[C@H]2SC1", "note": "[crystalline form prepared in CN1495187A]", "values": [
      {"measurement": "thermal cracking / decomposition temperature", "setting": "[10]", "result": "≥ 154±1", "unit": "°C"}
    ]}
  ]
}
